Measured values as given in PubChem BioAssay (NCI).
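Growth conditions: 96-well plates. Treatment: test compound, 48 hours, 5 concentrations. Analysis: linear interpolation between bracketing concentrations; unreached endpoints set to highest concentration. GI50 is the concentration that inhibits growth by half. Definition used: TGI = concentration required for complete inhibition of growth.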

Key:
Assay in all cases: NCI tumour cell line growth inhibition, 48 h
NCI-H23 lung = system: NCI-H23 lung
HCT-15 colon = system: HCT-15 colon
EKVX NSCLC = system: EKVX NSCLC
U251 CNS = system: U251 CNS
A549 NSCLC = system: A549 NSCLC
RPMI-8226 leukemia = system: RPMI-8226 leukemia
UACC-62 melanoma = system: UACC-62 melanoma
MALME-3M melanoma = system: MALME-3M melanoma
OVCAR-8 ovarian = system: OVCAR-8 ovarian
NCI-H226 lung = system: NCI-H226 lung

| SMILES | GI50 (NCI-H23 lung) | TGI (NCI-H23 lung) | GI50 (HCT-15 colon) | TGI (HCT-15 colon) | GI50 (EKVX NSCLC) | TGI (EKVX NSCLC) | GI50 (U251 CNS) | TGI (U251 CNS) | GI50 (A549 NSCLC) | TGI (A549 NSCLC) | GI50 (RPMI-8226 leukemia) | TGI (RPMI-8226 leukemia) | GI50 (UACC-62 melanoma) | TGI (UACC-62 melanoma) | GI50 (MALME-3M melanoma) | TGI (MALME-3M melanoma) | GI50 (OVCAR-8 ovarian) | TGI (OVCAR-8 ovarian) | GI50 (NCI-H226 lung) | TGI (NCI-H226 lung) |
| --- | --- | --- | --- | --- | --- | --- | --- | --- | --- | --- | --- | --- | --- | --- | --- | --- | --- | --- | --- | --- |
| NC(=O)c1cc(I)ccc1NC(=O)/C=C/c1ccccc1Cl | 1.07 µM | 19.6 µM | 0.657 µM | > 68.3 µM | 1.33 µM | > 69 µM | 0.578 µM | 19.5 µM | 1.18 µM | 25.2 µM | 0.504 µM | 4.66 µM | 0.312 µM | 48.7 µM | 0.211 µM | 17.6 µM | 3 µM | > 38.8 µM | 1.61 µM | > 60.6 µM |
| CON=C1C[C@]2(C[C@@H]3C[C@@H](C/C=C(\C)C[C@@H](C)/C=C/C=C4\CO[C@@H]5[C@H](O)C(C)=C[C@@H](C(=O)O3)[C@]45O)O2)O[C@H](/C(C)=C/C(C)C)[C@H]1C | 12.6 µM | 28.4 µM | 14.9 µM | 30.9 µM | 6.99 µM | 24 µM | 11.3 µM | 24.3 µM | 13.8 µM | 29.1 µM | 4.23 µM | 53.6 µM | 14.4 µM | 29.6 µM | 17.1 µM | 34.4 µM | 16.3 µM | 39.1 µM | 16 µM | 29.8 µM |
| N#CC(C(=O)CCC(=O)Nc1ccc(Cl)cc1)c1ccc(Cl)cc1 (stereo not given) |  | > 100 µM |  | > 100 µM |  | > 100 µM |  | > 100 µM |  | > 100 µM |  | > 100 µM |  | > 100 µM |  | > 100 µM |  | > 100 µM |  | > 100 µM |
| O=C1CC(C(=O)O)Cc2c(Br)ccc(O)c21 (stereo not given) |  | > 100 µM |  | > 100 µM |  | > 100 µM |  | > 100 µM |  | > 100 µM |  | > 100 µM |  | > 100 µM |  | > 100 µM |  | > 100 µM |  | > 100 µM |
| O=C(CN1CCN(CCN2C(=O)c3cccc4cccc(c34)C2=O)CC1)Nc1ccc2ncsc2c1 | 7.08 µM | 27 µM | 5.05 µM | 20.1 µM | 9.79 µM | 39.2 µM | 4.39 µM | 17.2 µM | 3.58 µM | 15.4 µM | 9.39 µM | 38.1 µM | 6.61 µM | 22.4 µM | 7.47 µM | 24 µM | 3.8 µM | 22.9 µM | 7.58 µM | > 100 µM |
| N#CCCN(C1=NN(C(=O)CC(=O)Nc2ccc(Cl)cc2)C(c2ccccc2)C1)c1ccc(Cl)cc1 (stereo not given) |  | > 100 µM |  | > 100 µM |  | > 100 µM |  | > 100 µM |  | > 100 µM |  | > 100 µM |  | > 100 µM |  | > 100 µM |  | > 100 µM |  | > 100 µM |
| O=C1c2cccc([N+](=O)[O-])c2C(=O)c2nccnc21 |  | 2.98 µM |  | 2.92 µM |  | 3.92 µM |  | 4.34 µM |  | 3.37 µM |  | 7.92 µM |  | 2.62 µM |  | 3.04 µM |  | 7.09 µM |  | 4.06 µM |
| CCOC(=O)C1=C(C)NC(C)=C(C(=O)OCCNC(=O)c2ccc(N=[N+]=[N-])cc2)C1c1ccccc1C(F)(F)F (stereo not given) |  | 21.5 µM |  | 21.5 µM |  | 21.5 µM |  | 21.5 µM |  | 21.5 µM |  | 18.9 µM |  | 21.5 µM |  | 21.5 µM |  | 21.5 µM |  | 21.5 µM |
